Experimental data reported in patent US9918983B2, “Suicidal LSD1 inhibitors targeting SOX2-expressing cancer cells” (THE BOARD OF REGENTS OF THE NEVADA SYSTEM OF HIGHER …, priority 2013, dated 2018).

Experiments:
OCT4, SOX2, FOXA2, BMP2 [1] = assay: Expression of pluripotency and differentiation genes in F9 cells; type: cell-based, mouse
Description: (§8) Alternatively, total RNA was extracted with the TRIzol reagent (Invitrogen), and cDNA was generated using a cloned avian myeloblastosis virus first-strand cDNA synthesis kit (TaKaRa). The mRNA levels of the target genes were quantified by realtime PCR using SYBR green (TaKaRa) in an ABI Prism 7300 real-time PCR system (Applied Biosystems). […] To synchronize PA-1 and F9 cells at the G1/S phase transition, cells were treated with 2.5 mM thymidine for 12 h, released into fresh medium for 6 h, and blocked again with 2.5 mM thymidine for an additional 12 h. The cell cycle arrest was analyzed by FACS. For differentiation, F9 and PA-1 cells were seeded in 6-well plates at a density of 1×10^4 cells per well and supplemented with 5 μM RA for 3 days. Cells were then recultured in fresh medium without RA for another 2 days, and the cell cycle was analyzed on a BD FACSCalibur cell sorter using the CellQuest program (Becton, Dickinson, Mountain View, Calif.). The percentages of cells in G1, S, and G2/M phases were determined by the use of ModFit LT software.

F9 cells = assay: Cell cycle analysis by FACS in F9 cells; type: cell-based, mouse; conditions: 5 μM RA for 3 days
Description: (§1) The fluorescence-activated cell sorting (FACS) and 3-(4,5-dimethyl-2-thiazolyl)-2,5-diphenyl-2H-tetrazolium bromide (MTT) assays were conducted as described previously (Lan, R., et al. (2012) Lab. Invest. 92, 1503-1514). To synchronize PA-1 and F9 cells at the G1/S phase transition, cells were treated with 2.5 mM thymidine for 12 h, released into fresh medium for 6 h, and blocked again with 2.5 mM thymidine for an additional 12 h. The cell cycle arrest was analyzed by FACS. For differentiation, F9 and PA-1 cells were seeded in 6-well plates at a density of 1×10^4 cells per well and supplemented with 5 μM RA for 3 days. Cells were then recultured in fresh medium without RA for another 2 days, and the cell cycle was analyzed on a BD FACSCalibur cell sorter using the CellQuest program (Becton, Dickinson, Mountain View, Calif.). The percentages of cells in G1, S, and G2/M phases were determined by the use of ModFit LT software.

OCT4, SOX2, FOXA2, BMP2 [2] = assay: Expression of pluripotency and differentiation genes in PA-1 cells; type: cell-based, human
Description: as §8

PA-1 cells [3] = assay: Cell cycle analysis by FACS in PA-1 cells; type: cell-based, human; conditions: 5 μM RA for 3 days
Description: as §1

Sox2 = Sox2 protein level by western blotting in carcinoma cells; type: cell-based, human; design: dose or concentration left out as unconfirmed; conditions: indicated carcinoma cells, 30 hr
Excerpt: Log-phase growing cancer cells were directly lysed in a buffer containing 0.5% SDS. Proteins in the lysates were equalized and analyzed by Western blotting using antibodies against Sox2, LSD1, H3K4Me1, H3K4Me2, Oct4, and other proteins as described previously or in the figure descriptions (Wang, J., et al. (2011) Cancer Research 71, 7238-7249). For immunohistochemical staining, rabbit monoclonal anti-LSD1 (clone C69G12, cat. #2184) and anti-Sox2 (clone D6D9, cat. #3579) antibodies were obtained from Cell Signaling. Rabbit anti-Sox2 polyclonal antibodies were raised using the purified GST-Sox2 fusion protein as the antigen.
Referring to FIG. 11A, inactivation of LSD1 by LSD1 inhibitors or siRNAs caused the downregulation of Sox2. The indicated carcinoma cells were treated with […] of the LSD1 inhibitors CBB1007 and CBB1003 for 30 hr or with 50 nM of Luc or LSD1 siRNAs for 60 hr. The protein levels of LSD1, Sox2, Lin28, CUL1, and histone H3 were analyzed by western blotting.

TP63 and KRT6A [4] = assay: TP63 and KRT6A mRNA by real-time RT-PCR in NCI-H520 cells; type: cell-based, human; conditions: 50 μM, 30 hours
Description: (§2) Total RNA was extracted using TRIZOL reagent (TaKaRa) and complementary DNA was generated according to instructions in the PrimeScript 1st strand cDNA Synthesis Kit (TaKaRa) as described previously (Wang, J., et al. (2011) Cancer Research 71, 7238-7249). The cDNAs were diluted to 1/20 and 1 μL of each diluted sample was used as template for each sample. Real-time quantitative PCR was performed on an ABI Prism 7300 sequence detection system (Applied Biosystems) using SYBR Green (TaKaRa) according to the manufacturer's instructions. PCR amplification of the housekeeping gene β-Actin was performed as a control. Experiments for specific silencing or induction of gene expression were repeated at least three times. The real-time PCR primers of human genes are described in Table 3 above.
(§3) Left panels: lung carcinoma NCI-H520, A549, and H1299 cells were either treated with 50 μM CBB1003 for 30 hours or were transfected with Luc, LSD1, or Sox2 specific siRNAs for 48 hours as indicated. […] The statistical differences between experimental and control groups were analyzed by one-way ANOVA (*: p<0.05 and **: p<0.01). Right panels: the ablation efficiency of LSD1 and Sox2 siRNAs was examined.

SK-BR-3 cells = assay: Cell growth/viability (MTT, microscopy); type: cell-based, human; conditions: 50 μM, 30 hours
Description: (§4) Lung, breast, ovarian, and other carcinoma cells were either obtained from American Type Culture Collection (ATCC) or from the DTP and DCTD Tumor Repository of National Cancer Institute (the NCI-60 cancer cell line panel), operated by Charles River Laboratory, Inc., as listed in Table 1. They were cultured according to instructions and treated with various concentrations of LSD1 inhibitors for 30-36 hours for mRNA analysis by quantitative real time RT-PCR or for 30-48 hours for protein analysis and the cell viability assays using Western blotting or microscopy and MTT assays as described previously (Wang, J., et al. (2011) Cancer Research 71, 7238-7249).
(§5) Alternatively, cell viability assays were conducted as previously described (Wang, J., et al. (2011) Cancer Research 71, 7238-7249). For the MTT assay, cells were seeded onto 96-well culture plates with a density of 2000-5000 cells/well, and incubated with CBB1003 or CBB1007 at various concentrations from 1 to 100 μM for 30-48 hours, depending cell growth rate. Dimethylsulfoxide (DMSO) was used as a solvent control. MTT was added to a final concentration of 0.5 mg/mL and cells were re-incubated for 4 hours. After removing the medium, 200 μL DMSO was added to dissolve formazan, followed by incubation for 10 minutes, and absorbance was measured at 490 nm by a Bio Red microplate reader. All assays were performed in triplicates for each concentration. The cell viability rate was calculated as the relative percentage of MTT absorption as follows: % cell viability=(mean experimental absorbance/mean control absorbance)×100.

HS38.T cells = assay: Cell growth/viability (MTT, microscopy); type: cell-based, human; conditions: 50 μM, 30 hours
Description: as §4, §5

BT-549 cells = assay: Cell growth/viability (MTT, microscopy); type: cell-based, human; conditions: BT549 cells, 50 μM, 30 hours
Description: as §4, §5

SKOV-3 cells = assay: Cell growth/viability (MTT, microscopy); type: cell-based, human; conditions: 50 μM, 30 hours
Description: as §4, §5

MCF7 cells = assay: Cell growth/viability (MTT, microscopy); type: cell-based, human; conditions: 50 μM, 30 hours
Description: as §4, §5

IGROV-1 cells = assay: Cell growth/viability (MTT, microscopy); type: cell-based, human; conditions: 50 μM, 30 hours
Description: as §4, §5

G401 cells = assay: Cell growth/viability (MTT, microscopy); type: cell-based, human; conditions: 50 μM, 30 hours
Description: as §4
(§6) Alternatively, cell viability assays were conducted as previously described (Wang, J., et al. (2011) Cancer Research 71, 7238-7249). […] After removing the medium, 200 μL DMSO was added to dissolve formazan, followed by incubation for 10 minutes, and absorbance was measured at 490 nm by a Bio Red microplate reader. […] The cell viability rate was calculated as the relative percentage of MTT absorption as follows: % cell viability=(mean experimental absorbance/mean control absorbance)×100.
Referring to FIG. 10B, Sox2-expressing myelogenous leukemia and rhabdoid tumor cells were also sensitive to LSD1 inhibitors. […] The statistical differences between compound treated and control groups were analyzed by One-way ANOVA. *: p<0.05 and **: p<0.01.

ES-2 cells = assay: Cell growth/viability (MTT, microscopy); type: cell-based, human
Description: as §4
Alternatively, cell viability assays were conducted as previously described (Wang, J., et al. (2011) Cancer Research 71, 7238-7249). […] Dimethylsulfoxide (DMSO) was used as a solvent control. MTT was added to a final concentration of 0.5 mg/mL and cells were re-incubated for 4 hours. After removing the medium, 200 μL DMSO was added to dissolve formazan, followed by incubation for 10 minutes, and absorbance was measured at 490 nm by a Bio Red microplate reader. All assays were performed in triplicates for each concentration. The cell viability rate was calculated as the relative percentage of MTT absorption as follows: % cell viability=(mean experimental absorbance/mean control absorbance)×100.
(§7) Table 8 below lists activity of CBB3001 (compound 10) in Sox2-negative (ES-2) and Sox2-expressing (PA-1 and T47D) cancer cells determined in a cell-based assay as described herein (see also FIG. 3A-C).

PA-1 cells [5] = assay: Cell growth/viability (MTT, microscopy); type: cell-based, human
Description: as §4, §5, §7

TP63 and KRT6A [6] = assay: TP63 and KRT6A mRNA by real-time RT-PCR in A549 cells; type: cell-based, human; conditions: 50 μM, 30 hours
Description: as §2, §3

T47D cells = assay: Cell growth/viability (MTT, microscopy); type: cell-based; conditions: Homo sapiens; Sox2-expressing T47D cancer cells
Description: as §4, §6, §7

LSD1 = molecular target: T1, LSD1 (Homo sapiens, UniProt O60341); assay: LSD1 activity (LSD1 IC50, Table 7, FIG. 2); type: cell-based
T1 construct: LSD1 activity determined in a cell-based assay as described herein; endogenous in cells
Description: For a typical deacetylation assay, 1 μg rHDAC1 or 1 μg immunoprecipitated endogenous HDAC1-protein A complexes (from two 10-cm dishes) was incubated with 0.4 μg H4K16ac peptide in the presence or absence of 50 μM CBB1007 or 2 μM MS-275 at 30° C. for 1 h. The percentages of deacetylated products were analyzed by mass spectrometry, and the data were analyzed by GraphPad Prism (version 5) software. The reaction products were analyzed by mass spectrometry to separate the peptide substrate (H4K16ac) and the product (H4K16), as previously described (Wang, J., et al. (2011) Cancer Research 71, 7238-7249). For a typical demethylation assay, 0.4 μg H3K4me2 substrate peptide was incubated individually with 1 μg recombinant LSD1 (rLSD1) or 1 μg immunoprecipitated LSD1-protein A complex in the presence or absence of 50 μM CBB1007 or 2 μM MS-275 at 30° C. for 1 h. The reaction products were analyzed by mass spectrometry to separate the products (H3K4me1 and H3K4) from the substrate (H3K4me2), as previously described (Wang, J., et al. (2011) Cancer Research 71, 7238-7249).
Table 7 below lists specific compounds and LSD1 activity determined in a cell-based assay as described herein (see also FIGS. 2A and 2B).

**Q.** CC1=C(/C=C/C(C)=C/C=C/C(C)=C/C(=O)O)C(C)(C)CCC1 [RA, all-trans-retinoic acid] was tested. Which “OCT4 and SOX2 levels” value (OCT4, SOX2, FOXA2, BMP2 [1]) did it give?
**A.** reduction

**Q.** What about the “genes for differentiation, such as FOXA2 and BMP2” value (OCT4, SOX2, FOXA2, BMP2 [1]) of the same molecule?
**A.** induction

**Q.** What about the cell cycle effect (F9 cells) of the same molecule?
**A.** G1 cell cycle arrest

**Q.** And the “OCT4 and SOX2 levels” value (OCT4, SOX2, FOXA2, BMP2 [2])?
**A.** reduction

**Q.** What about the “genes for differentiation, such as FOXA2 and BMP2” value (OCT4, SOX2, FOXA2, BMP2 [2]) of the same molecule?
**A.** induction

**Q.** And the cell cycle effect (PA-1 cells [3])?
**A.** G1 cell cycle arrest

**Q.** What does the source list for N=C(N)c1ccc(C(=O)N2CCN(C(=O)c3cc(CN4CCN(C(=N)N)CC4)cc([N+](=O)[O-])c3)CC2)cc1 [CBB1003]?
**A.** Sox2 protein level (Sox2): downregulation; mRNA levels of TP63 and KRT6A (TP63 and KRT6A [4]): down-regulated; cell growth (SK-BR-3 cells): not sensitive; cell growth (HS38.T cells): not sensitive; cell growth (BT-549 cells): not sensitive; cell growth (SKOV-3 cells): sensitive; cell growth (MCF7 cells): sensitive; cell growth (IGROV-1 cells): sensitive; cell growth (G401 cells): inhibited; cell growth (ES-2 cells; ES-2 cells, 50 μM, 30 hours): not sensitive; cell growth (PA-1 cells [5]; PA-1 cells, 50 μM, 30 hours): sensitive; mRNA levels of TP63 and KRT6A (TP63 and KRT6A [6]): down-regulated

**Q.** With CC(C)(C)OC(=O)N[C@@H]1C[C@H]1c1ccc(OC(=O)OC(C)(C)C)cc1 [Compound 10, Tert-Butyl ((1R,2S)-2-(4-((Tert-Butoxycarbonyl)Oxy)Phenyl)Cyclopropyl)Carbamate] as the molecule, how does the IC50 (T47D cells) read?
**A.** 22.1 µM

**Q.** And the IC50 (ES-2 cells; Homo sapiens, Sox2-negative ES-2 cancer cells)?
**A.** 310 µM

**Q.** And the IC50 (PA-1 cells [5]; Homo sapiens, Sox2-expressing PA-1 cancer cells)?
**A.** 15.2 µM

**Q.** And the IC50 (LSD1)?
**A.** 21.2 µM
